Source: patent US20250019376A1, “CHROMANE AMIDINE MONOBACTAM ANTIBIOTICS” (priority 2021, published 2025)

Tests used:
Conditions in all cases: lowest concentration inhibiting 95% of growth (OD600); with BLi relebactam 4 μg/mL; 22 hours, 35±2° C.
[1] = system: Acinetobacter baumannii expressing TEM-1, AmpC, and Oxa-24/40 (CL6188); format: cell-based
Method: (§1) The concentrations of compounds required to inhibit the growth of various strains of bacteria were determined in an assay that assessed bacterial growth by measuring optical density at 600 nm (OD600). The bacterial strains tested included the clinical strains Escherichia co/i expressing NDM-1 (CLB30016), Klebsiella pneumoniae expressing KPC-1 (CL6569), Acinetobacter baumannii expressing TEM-1, AmpC, and Oxa-24/40 (CL6188) and Pseudomonas aeruginosa expressing AmpC (CL5701). All compounds were tested in the presence of a f3 lactamase inhibitor (BLi, Relebactam) in 384-well microplates.
(§2) The clinical strains were stored as frozen single use stocks, thawed and diluted into 1.1× cation-adjusted Mueller-Hinton 11 broth to achieve approximately 2×10^5 CFU/mL. Test compounds were dissolved in DMSO and diluted 1:50 in the assay, resulting in a final concentration range of 100 μM to 0.098 μM. On the day of the assay, 1 μL of test compound was added to the plate followed by 4 μL of 50 μg/mL BLi in MOPS buffer and 45 μL of diluted bacteria. Plates were centrifuged at 1000 rpm for 30 seconds, shaken at approximately 800 rpm for 1 minute, and incubated at 35±2° C. for 22 hours. The concentration of BLi used in the assay was 4 μg/mL. At the end of the incubation, absorbance at 600 nm was determined using a spectrophotometer. Inhibition was quantitated by identifying the lowest concentration of test compound that was required to inhibit […] of the growth of the bacteria.

[2] = system: Klebsiella pneumoniae expressing KPC-1 (CL6569); test: Growth inhibitory concentration (OD600), K. pneumoniae CL6569; format: cell-based
Method: as §1, §2

[3] = system: Pseudomonas aeruginosa expressing AmpC (CL5701); test: Growth inhibitory concentration (OD600), P. aeruginosa CL5701; format: cell-based
Method: as §1, §2

[4] = system: Escherichia co/i expressing NDM-1 (CLB30016); test: Growth inhibitory concentration (OD600), E. coli CLB30016; format: cell-based, Escherichia coli
Method: as §1, §2

CC1(C)[C@H](NC(=O)/C(=N\O[C@](C)(C(=O)O)[C@H]2CCc3cc(C(=N)N[C@H]4C[C@](N)(C(O)CO)C4)ccc3O2)c2csc(N)n2)C(=O)N1OS(=O)(=O)O (stereo partly drawn) [Compound 100, (S)-2-((R)-6-(N-((1S,3S)-3-amino-3-((R)-1,2-dihydroxyethyl)cyclobutyl)carbamimidoyl)chroman-2-yl)-2-((((Z)-1-(2-aminothiazol-4-yl)-2-(((S)-2,2-dimethyl-4-oxo-1-(sulfooxy)azetidin-3-yl)amino)-2-oxoethylidene)amino)-oxy)propanoic acid]
AB_CL6188 MITC95 [1]: 6.25 µM
KP_CL6569 MITC95 [2]: 0.7813 µM
PA_CL5701 MITC95 [3]: 1.563 µM
EC_CLB30016 MITC95 [4]: 6.25 µM

CC1(C)[C@H](NC(=O)/C(=N\O[C@](C)(C(=O)O)[C@H]2CCc3cc(C(=N)N[C@H]4CC[C@](O)(CN)CC4)ccc3O2)c2csc(N)n2)C(=O)N1OS(=O)(=O)O [Compound 59, (S)-2-((R)-6-(N-((1s,4S)-4-(aminomethyl)-4-hydroxycyclohexyl)carbamimidoyl)chroman-2-yl)-2-((((Z)-1-(2-aminothiazol-4-yl)-2-(((S)-2,2-dimethyl-4-oxo-1-(sulfooxy)azetidin-3-yl)amino)-2-oxoethylidene)amino)oxy)propanoic acid]
AB_CL6188 MITC95 [1]: 3.125 µM
KP_CL6569 MITC95 [2]: 0.3906 µM
PA_CL5701 MITC95 [3]: 1.563 µM
EC_CLB30016 MITC95 [4]: 12.5 µM

CC1(C)[C@H](NC(=O)/C(=N\O[C@](C)(C(=O)O)[C@H]2CCc3cc(C(=N)NC4CCC(N)(CO)CC4)ccc3O2)c2csc(N)n2)C(=O)N1OS(=O)(=O)O (stereo partly drawn) [Compound 69, (S)-2-((R)-6-(N-((1r,4R)-4-amino-4-(hydroxymethyl)cyclohexyl)carbamimidoyl)chroman-2-yl)-2-((((Z)-1-(2-aminothiazol-4-yl)-2-(((S)-2,2-dimethyl-4-oxo-1-(sulfooxy)azetidin-3-yl)amino)-2-oxoethylidene)amino)oxy)propanoic acid]
AB_CL6188 MITC95 [1]: 4.688 µM
KP_CL6569 MITC95 [2]: 0.3906 µM
PA_CL5701 MITC95 [3]: 1.563 µM
EC_CLB30016 MITC95 [4]: 6.25 µM

CC1(C)[C@H](NC(=O)/C(=N\O[C@](C)(C(=O)O)[C@H]2CCc3cc(C(=N)N[C@]4(C)CC[C@@H](N)CC4)ccc3O2)c2csc(N)n2)C(=O)N1OS(=O)(=O)O [Compound 71, (S)-2-((R)-6-(N-((1r,4R)-4-amino-1-methylcyclohexyl)carbamimidoyl)chroman-2-yl)-2-((((Z)-1-(2-aminothiazol-4-yl)-2-(((S)-2,2-dimethyl-4-oxo-1-(sulfooxy)azetidin-3-yl)amino)-2-oxoethylidene)amino)oxy)propanoic acid]
AB_CL6188 MITC95 [1]: 4.688 µM
KP_CL6569 MITC95 [2]: 0.7813 µM
PA_CL5701 MITC95 [3]: 1.563 µM
EC_CLB30016 MITC95 [4]: 9.375 µM

CC1(C)[C@H](NC(=O)/C(=N\O[C@](C)(C(=O)O)[C@H]2CCc3cc(C(=N)N[C@H]4C[C@@](N)(CCO)C4)ccc3O2)c2csc(N)n2)C(=O)N1OS(=O)(=O)O [Compound 87, (S)-2-((R)-6-(N-((1r,3R)-3-amino-3-(2-hydroxyethyl)cyclobutyl)carbamimidoyl)chroman-2-yl)-2-((((Z)-1-(2-aminothiazol-4-yl)-2-(((S)-2,2-dimethyl-4-oxo-1-(sulfooxy)azetidin-3-yl)amino)-2-oxoethylidene)amino)oxy)propanoic acid]
AB_CL6188 MITC95 [1]: 4.688 µM
KP_CL6569 MITC95 [2]: 0.3906 µM
PA_CL5701 MITC95 [3]: 1.563 µM
EC_CLB30016 MITC95 [4]: 6.25 µM

COCC[C@]1(N)CC[C@@H](NC(=N)c2ccc3c(c2)CC[C@H]([C@](C)(O/N=C(\C(=O)N[C@@H]2C(=O)N(OS(=O)(=O)O)C2(C)C)c2csc(N)n2)C(=O)O)O3)CC1 [Compound 63, (S)-2-((R)-6-(N-((1s,4S)-4-amino-4-(2-methoxyethyl)cyclohexyl)carbamimidoyl)chroman-2-yl)-2-((((Z)-1-(2-aminothiazol-4-yl)-2-(((S)-2,2-dimethyl-4-oxo-1-(sulfooxy)azetidin-3-yl)amino)-2-oxoethylidene)amino)oxy)propanoic acid]
AB_CL6188 MITC95 [1]: 6.25 µM
KP_CL6569 MITC95 [2]: 0.7813 µM
PA_CL5701 MITC95 [3]: 3.125 µM
EC_CLB30016 MITC95 [4]: 12.5 µM

CC1(C)[C@H](NC(=O)/C(=N\O[C@](C)(C(=O)O)[C@H]2CCc3cc(C(=N)N[C@H]4C[C@@](N)(C(O)CO)C4)ccc3O2)c2csc(N)n2)C(=O)N1OS(=O)(=O)O (stereo partly drawn) [Compound 99, (S)-2-((R)-6-(N-((1R,3R)-3-amino-3-((R)-1,2-dihydroxyethyl)cyclobutyl)carbamimidoyl)chroman-2-yl)-2-((((Z)-1-(2-aminothiazol-4-yl)-2-(((S)-2,2-dimethyl-4-oxo-1-(sulfooxy)azetidin-3-yl)amino)-2-oxoethylidene)amino)oxy)propanoic acid]
AB_CL6188 MITC95 [1]: 12.5 µM
KP_CL6569 MITC95 [2]: 0.7813 µM
PA_CL5701 MITC95 [3]: 3.125 µM
EC_CLB30016 MITC95 [4]: 6.25 µM

CC1(C)[C@H](NC(=O)/C(=N\O[C@](C)(C(=O)O)[C@H]2CCc3cc(C(=N)N[C@H]4C[C@](N)(CCO)C4)ccc3O2)c2csc(N)n2)C(=O)N1OS(=O)(=O)O [Compound 86, (S)-2-((R)-6-(N-((1s,3S)-3-amino-3-(2-hydroxyethyl)cyclobutyl)carbamimidoyl)chroman-2-yl)-2-((((Z)-1-(2-aminothiazol-4-yl)-2-(((S)-2,2-dimethyl-4-oxo-1-(sulfooxy)azetidin-3-yl)amino)-2-oxoethylidene)amino)oxy)propanoic acid]
AB_CL6188 MITC95 [1]: 6.25 µM
KP_CL6569 MITC95 [2]: 0.3906 µM
PA_CL5701 MITC95 [3]: 1.563 µM
EC_CLB30016 MITC95 [4]: 6.25 µM

CC1(C)[C@H](NC(=O)/C(=N\O[C@](C)(C(=O)O)[C@H]2CCc3cc(C(=N)N[C@H]4C[C@](CN)(CO)C4)ccc3O2)c2csc(N)n2)C(=O)N1OS(=O)(=O)O [Compound 78, (S)-2-((R)-6-(N-((1r,3R)-3-(aminomethyl)-3-(hydroxymethyl)cyclobutyl)carbamimidoyl)chroman-2-yl)-2-((((Z)-1-(2-aminothiazol-4-yl)-2-(((S)-2,2-dimethyl-4-oxo-1-(sulfooxy)azetidin-3-yl)amino)-2-oxoethylidene)amino)oxy)propanoic acid]
AB_CL6188 MITC95 [1]: 4.688 µM
KP_CL6569 MITC95 [2]: 0.3906 µM
PA_CL5701 MITC95 [3]: 1.563 µM
EC_CLB30016 MITC95 [4]: 6.25 µM

CC1(C)[C@H](NC(=O)/C(=N\O[C@](C)(C(=O)O)[C@H]2CCc3cc(C(=N)N[C@H]4C[C@]5(CCNC5)C4)ccc3O2)c2csc(N)n2)C(=O)N1OS(=O)(=O)O [Compound 22, (S)-2-((R)-6-(N-((2r,4S)-6-azaspiro[3.4]octan-2-yl)carbamimidoyl)chroman-2-yl)-2-((((Z)-1-(2-aminothiazol-4-yl)-2-(((S)-2,2-dimethyl-4-oxo-1-(sulfooxy)azetidin-3-yl)amino)-2-oxoethylidene)amino)oxy)propanoic acid]
AB_CL6188 MITC95 [1]: 3.125 µM
KP_CL6569 MITC95 [2]: 0.3906 µM
PA_CL5701 MITC95 [3]: 1.563 µM
EC_CLB30016 MITC95 [4]: 3.125 µM
